Results from the NIST ThermoML archive (doi:10.1021/acs.jced.6b00686).
Numbers after ± are expanded uncertainties.

Test: refractive index (Na D-line) (dimensionless)
Conditions: 293.15 K; 101.3 kPa; Liquid; Standard Abbe refractometry

refractive index	SMILES
1.5027 ± 0.0005	O=C(O)CS [2-mercaptoacetic acid]
1.3905 ± 0.0005	CC(=O)OCC(C)C [2-methylpropyl ethanoate]
1.3887 ± 0.0005	CCCCOC=O [butyl methanoate]
1.3327 ± 0.0005	O [water]

SMILES	refractive index
CCCCOC(C)=O [butyl ethanoate]	1.394 ± 0.0005
